Each compound was assayed against human PAD4 (Homo sapiens (Human), UniProt Q9UM07) (assay: In Vitro PAD4 BAEE Biochemical Assay). Settings: recombinant PAD4 5 nM, 2 mM calcium chloride, 3 mM BAEE substrate; geometric mean of multiple experiments.
Procedure, shortened: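 Deimination of BAEE substrate (3 mM) measured as ammonia via o-phthalaldehyde–DTT isoindole fluorescence, 405/535 nm. Tag-free bacterially expressed human PAD4 at 5 nM with 2 mM calcium chloride, pH 7.6 MOPS buffer, 30 min compound preincubation then 2 h reaction, both at 25 °C.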

Sequence of human PAD4 (Q9UM07 2-663): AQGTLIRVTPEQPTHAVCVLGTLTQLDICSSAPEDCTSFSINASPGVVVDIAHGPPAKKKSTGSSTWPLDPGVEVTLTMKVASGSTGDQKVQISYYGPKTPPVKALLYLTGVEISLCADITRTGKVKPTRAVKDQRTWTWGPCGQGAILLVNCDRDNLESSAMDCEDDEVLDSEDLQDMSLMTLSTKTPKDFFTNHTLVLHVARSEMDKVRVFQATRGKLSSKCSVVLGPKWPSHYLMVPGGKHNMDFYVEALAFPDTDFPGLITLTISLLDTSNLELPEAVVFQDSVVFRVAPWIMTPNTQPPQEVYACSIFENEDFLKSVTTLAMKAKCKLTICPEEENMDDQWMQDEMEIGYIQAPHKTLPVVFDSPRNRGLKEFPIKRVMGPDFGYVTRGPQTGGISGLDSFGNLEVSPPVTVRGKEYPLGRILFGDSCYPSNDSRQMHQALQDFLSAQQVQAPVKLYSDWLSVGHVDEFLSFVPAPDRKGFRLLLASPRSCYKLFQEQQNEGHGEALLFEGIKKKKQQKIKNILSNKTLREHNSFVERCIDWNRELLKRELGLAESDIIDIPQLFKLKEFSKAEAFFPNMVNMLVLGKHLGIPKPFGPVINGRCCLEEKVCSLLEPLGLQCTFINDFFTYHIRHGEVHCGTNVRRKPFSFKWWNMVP

Row | Structure (SMILES) | IC50 [nM]
1 | COc1cc(C(=O)N2C[C@H](N)[C@@H]3CC[C@H]2C3)cc2nc(-c3cc4ccc([C@@H](C)NC(=O)C56CC(F)(C5)C6)nc4n3CC3(F)CC3)n(C)c12 [Example 291, N-((R)-1-(2-(5-((1S,4R,5R)-4-amino-2-azabicyclo[3.2.1]octane-2-carbonyl)-7-methoxy-1-methyl-1H-benzo[d]imidazol-2-yl)-1-((1-fluorocyclopropyl)methyl)-1H-pyrrolo[2,3-b]pyridin-6-yl)ethyl)-3-fluorobicyclo[1.1.1] pentane-1-carboxamide] | 91.9
2 | COc1cc(C(=O)N2C[C@H](N)[C@@H]3CC[C@H]2C3)cc2nc(-c3cc4ccc([C@@H](C)NC(=O)c5ccccc5C(F)(F)F)nc4n3CC3CC3)n(C)c12 [Example 292, N-((R)-1-(2-(5-((1S,4R,5R)-4-amino-2-azabicyclo [3.2.1]octane-2-carbonyl)-7-methoxy-1-methyl-1H-benzo [d]imidazol-2-yl)-1-(cyclopropylmethyl)-1H-pyrrolo[2,3-b]pyridin-6-yl)ethyl)-2-(trifluoromethyl) benzamide] | 128
3 | COc1cc(C(=O)N2C[C@H](N)[C@@H]3CC[C@H]2C3)cc2nc(-c3cc4ccc([C@@H](C)NC(=O)c5ccccc5Cl)nc4n3CC3CC3)n(C)c12 [Example 293, N-((R)-1-(2-(5-((1S,4R,5R)-4-amino-2-azabicyclo [3.2.1]octane-2-carbonyl)-7-methoxy-1-methyl-1H-benzo[d]imidazol-2-yl)-1-(cyclopropylmethyl)-1H-pyrrolo[2,3-b]pyridin-6-yl)ethyl)-2-chlorobenzamide] | 80.7
4 | COc1cc(C(=O)N2C[C@H](N)[C@@H]3CC[C@H]2C3)cc2nc(-c3cc4ccc([C@@H](C)NC(=O)c5ccccc5OC(F)(F)F)nc4n3CC3CC3)n(C)c12 [Example 294, N-((R)-1-(2-(5-((1S,4R,5R)-4-amino-2-azabicyclo [3.2.1]octane-2-carbonyl)-7-methoxy-1-methyl-1H-benzo[d]imidazol-2-yl)-1-(cyclopropylmethyl)-1H-pyrrolo[2,3-b]pyridin-6-yl)ethyl)-2-(trifluoromethoxy)benzamide] | 277
5 | COc1cc(C(=O)N2C[C@H](N)[C@@H]3CC[C@H]2C3)cc2nc(-c3cc4ccc([C@@H](C)NC(=O)c5c(F)cccc5F)nc4n3CC3CC3)n(C)c12 [Example 295, N-((R)-1-(2-(5-((1S,4R,5R)-4-amino-2-azabicyclo[3.2.1]octane-2-carbonyl)-7-methoxy-1-methyl-1H-benzo[d]imidazol-2-yl)-1-(cyclopropylmethyl)-1H-pyrrolo[2,3-b]pyridin-6-yl)ethyl)-2,6-difluorobenzamide] | 65.5
6 | COc1cc(C(=O)N2C[C@H](N)[C@@H]3CC[C@H]2C3)cc2nc(-c3cc4ccc([C@@H](C)NC(=O)c5ccnc(C(F)F)c5)nc4n3CC3CC3)n(C)c12 [Example 296, N-((R)-1-(2-(5-((1S,4R,5R)-4-amino-2-azabicyclo[3.2.1]octane-2-carbonyl)-7-methoxy-1-methyl-1H-benzo[d]imidazol-2-yl)-1-(cyclopropylmethyl)-1H-pyrrolo[2,3-b]pyridin-6-yl)ethyl)-2-(difluoromethyl)isonicotinamide] | 74.1
7 | COc1cc(C(=O)N2C[C@H](N)[C@@H]3CC[C@H]2C3)cc2nc(-c3cc4ccc([C@@H](C)NC(=O)c5ccc(C(F)F)nc5)nc4n3CC3CC3)n(C)c12 [Example 297, N-((R)-1-(2-(5-((1S,4R,5R)-4-amino-2-azabicyclo[3.2.1]octane-2-carbonyl)-7-methoxy-1-methyl-1H-benzo[d]imidazol-2-yl)-1-(cyclopropylmethyl)-1H-pyrrolo[2,3-b]pyridin-6-yl)ethyl)-6-(difluoromethyl)nicotinamide] | 65.9
8 | COc1cc(C(=O)N2C[C@H](N)[C@@H]3CC[C@H]2C3)cc2nc(-c3cc4ccc([C@@H](C)NC(=O)c5ccnc(Cl)c5)nc4n3CC3CC3)n(C)c12 [Example 298, N-((R)-1-(2-(5-((1S,4R,5R)-4-amino-2-azabicyclo[3.2.1]octane-2-carbonyl)-7-methoxy-1-methyl-1H-benzo[d]imidazol-2-yl)-1-(cyclopropylmethyl)-1H-pyrrolo[2,3-b]pyridin-6-yl)ethyl)-2-chloroisonicotinamide] | 86.4
9 | COc1cc(C(=O)N2C[C@H](N)[C@@H]3CC[C@H]2C3)cc2nc(-c3cc4ccc([C@@H](C)NC(=O)C56C7C8C9C7C5C9C86)nc4n3CC3CC3)n(C)c12 (stereo partly drawn) [Example 299, N-((R)-1-(2-(5-((1S,4R,5R)-4-amino-2-azabicyclo[3.2.1]octane-2-carbonyl)-7-methoxy-1-methyl-1H-benzo[d]imidazol-2-yl)-1-(cyclopropylmethyl)-1H-pyrrolo[2,3-b]pyridin-6-yl)ethyl)cubane-1-carboxamide] | 74.3
10 | COc1cc(C(=O)N2C[C@H](N)[C@@H]3CC[C@H]2C3)cc2nc(-c3cc4ccc([C@@H](C)NC(=O)c5ccc(C(C)(C)O)nc5)nc4n3CC3CC3)n(C)c12 [Example 300, N-((R)-1-(2-(5-((1S,4R,5R)-4-amino-2-azabicyclo[3.2.1]octane-2-carbonyl)-7-methoxy-1-methyl-1H-benzo[d]imidazol-2-yl)-1-(cyclopropylmethyl)-1H-pyrrolo[2,3-b]pyridin-6-yl)ethyl)-6-(2-hydroxypropan-2-yl)nicotinamide] | 72
11 | [2H]C1([2H])[C@H](N)[C@@H]2CC[C@@H](C2)N1C(=O)c1cc(OC)c2c(c1)nc(-c1cc3ccc(C(C)NC(=O)C45CC(F)(C4)C5)nc3n1CC1CC1)n2C (stereo partly drawn) [Example 301, N-((R)-1-(2-(5-((1S,4R,5R)-4-amino-2-azabicyclo[3.2.1]octane-2-carbonyl-3,3-d2)-7-methoxy-1-methyl-1H-benzo[d]imidazol-2-yl)-1-(cyclopropylmethyl)-1H-pyrrolo[2,3-b]pyridin-6-yl)ethyl)-3-fluorobicyclo[1.1.1]pentane-1-carboxamide] | 65.8
12 | C[C@@H](NC(=O)C1(C#N)CC1)c1ccc2cc(-c3nc4cc(C(=O)N5C[C@H](N)[C@@H]6CC[C@H]5C6)cc(F)c4n3C3CC3)n(CC3CC3)c2n1 [Example 303, N-((R)-1-(2-(5-((1S,4R,5R)-4-amino-2-azabicyclo[3.2.1]octane-2-carbonyl)-1-cyclopropyl-7-fluoro-1H-benzo[d]imidazol-2-yl)-1-(cyclopropylmethyl)-1H-pyrrolo[2,3-b]pyridin-6-yl)ethyl)-1-cyanocyclopropane-1-carboxamide] | 84.1
13 | C[C@@H](NC(=O)C1CCOCC1)c1ccc2cc(-c3nc4cc(C(=O)N5C[C@H](N)[C@@H]6CC[C@H]5C6)cc(F)c4n3C3CC3)n(CC3CC3)c2n1 [Example 304, N-((R)-1-(2-(5-((1S,4R,5R)-4-amino-2-azabicyclo[3.2.1]octane-2-carbonyl)-1-cyclopropyl-7-fluoro-1H-benzo[d]imidazol-2-yl)-1-(cyclopropylmethyl)-1H-pyrrolo[2,3-b]pyridin-6-yl)ethyl)tetrahydro-2H-pyran-4-carboxamide] | 48.6
14 | COc1cc(C(=O)N2C[C@H](N)[C@@H]3CC[C@H]2C3)cc2nc(-c3cc4ccc([C@@H](C)NC(=O)c5cccnc5C(F)F)nc4n3CC3CC3)n(C)c12 [Example 305, N-((R)-1-(2-(5-((1S,4R,5R)-4-amino-2-azabicyclo[3.2.1]octane-2-carbonyl)-7-methoxy-1-methyl-1H-benzo[d]imidazol-2-yl)-1-(cyclopropylmethyl)-1H-pyrrolo[2,3-b]pyridin-6-yl)ethyl)-2-(difluoromethyl)nicotinamide] | 72.7
15 | COc1cc(C(=O)N2C[C@H](N)[C@@H]3CC[C@H]2C3)cc2nc(-c3cc4ccc([C@@H](C)NC(=O)c5cccnc5C(F)(F)F)nc4n3CC3CC3)n(C)c12 [Example 306, N-((R)-1-(2-(5-((1S,4R,5R)-4-amino-2-azabicyclo[3.2.1]octane-2-carbonyl)-7-methoxy-1-methyl-1H-benzo[d]imidazol-2-yl)-1-(cyclopropylmethyl)-1H-pyrrolo[2,3-b]pyridin-6-yl)ethyl)-2-(trifluoromethyl)nicotinamide] | 92.8
16 | COc1cc(C(=O)N2C[C@H](N)[C@@H]3CC[C@H]2C3)cc2nc(-c3cc4ccc([C@@H](C)NC(=O)c5cccc(C(F)F)n5)nc4n3CC3CC3)n(C)c12 [Example 307, N-((R)-1-(2-(5-((1S,4R,5R)-4-amino-2-azabicyclo[3.2.1]octane-2-carbonyl)-7-methoxy-1-methyl-1H-benzo[d]imidazol-2-yl)-1-(cyclopropylmethyl)-1H-pyrrolo[2,3-b]pyridin-6-yl)ethyl)-6-(difluoromethyl) picolinamide] | 382
17 | COc1cc(C(=O)N2C[C@H](N)[C@@H]3CC[C@H]2C3)cc2nc(-c3cc4ccc([C@@H](C)NC(=O)c5ccc(C#CC(C)(C)S(C)(=O)=O)nc5)nc4n3CC3CC3)n(C)c12 [Example 308, N-((R)-1-(2-(5-((1S,4R,5R)-4-amino-2-azabicyclo[3.2.1]octane-2-carbonyl)-7-methoxy-1-methyl-1H-benzo[d]imidazol-2-yl)-1-(cyclopropylmethyl)-1H-pyrrolo[2,3-b]pyridin-6-yl)ethyl)-6-(3-methyl-3-(methylsulfonyl)but-1-yn-1-yl)nicotinamide] | 66.2
18 | COc1cc(C(=O)N2C[C@H](N)[C@@H]3CC[C@H]2C3)cc2nc(-c3cc4ccc([C@@H](C)NC(=O)c5ccc(C(F)F)nc5)nc4n3CC3CC3)n(C3CC3)c12 [Example 309, N-((R)-1-(2-(5-((1S,4R,5R)-4-amino-2-azabicyclo[3.2.1]octane-2-carbonyl)-1-cyclopropyl-7-methoxy-1H-benzo[d]imidazol-2-yl)-1-(cyclopropylmethyl)-1H-pyrrolo[2,3-b]pyridin-6-yl)ethyl)-6-(difluoromethyl)nicotinamide] | 111
